Results published in publication PMC4674391 (Archives of toxicology, 2015).
Structures can show the parent of a compound that is named as a salt.

Columns and labels:
zfOatp1f3 [1] = type: in vitro ADME, zebrafish (Danio rerio)
zfOatp1f1 [2] = type: in vitro ADME, zebrafish (Danio rerio)
zfOatp1d1 [3] = type: in vitro ADME, zebrafish (Danio rerio)
zfOatp1f2-1 [4] = type: in vitro ADME, zebrafish (Danio rerio)
[5] = test system: Ser/Thr protein phosphatases (ser/thrPP); conditions: cited from earlier work
OATPs = conditions: cited from earlier work
zfOatp1f2-2 [6] = type: in vitro ADME, zebrafish (Danio rerio)
carp = conditions: in vivo, po; cited from earlier work
zfOatp1f4-2 [7] = type: in vitro ADME, zebrafish (Danio rerio)
zfOatp1f4-1 [8] = type: in vitro ADME, zebrafish (Danio rerio)
zfOatp1f1 [9] = type: in vitro ADME, zebrafish (Danio rerio); remark: listed apart in the source
zfOatp1f2-1 [10] = type: in vitro ADME, zebrafish (Danio rerio); remark: listed apart in the source
zfOatp1d1 [11] = type: in vitro ADME, zebrafish (Danio rerio); remark: listed apart in the source
zfOatp1f4-2 [12] = type: in vitro ADME, zebrafish (Danio rerio); remark: listed apart in the source
zfOatp2b1 = type: in vitro ADME, zebrafish (Danio rerio)
zfOatp1f4-1 [13] = type: in vitro ADME, zebrafish (Danio rerio); remark: listed apart in the source
zfOatp1f3 [14] = type: in vitro ADME, zebrafish (Danio rerio); remark: listed apart in the source
zfOatp1f2-2 [15] = type: in vitro ADME, zebrafish (Danio rerio); remark: listed apart in the source
zfOatp4a1 = type: in vitro ADME, zebrafish (Danio rerio)
[16] = uptake for up to 30 min, transfected HEK293 (Figure S1)

Microcystin-LR [MC-LR]
MC congener transport (screen) (zfOatp1f3 [1]): did not transport any of the four MC-congeners tested | MC congener transport (screen) (zfOatp1f1 [2]): absence of MC transport | MC congener transport (screen) (zfOatp1d1 [3]): transported all tested MC-congeners | concentration dependent uptake (saturability) (zfOatp1d1 [3]): saturable | time up to which uptake is linear (zfOatp1d1 [3]): up to 6 h | MC congener transport (screen) (zfOatp1f2-1 [4]): did take up | time dependent MC uptake, relative speed (zfOatp1f2-1 [4]): much slower than MC-LW and MC-LF | inhibition of ser/thrPP activities [5]: approximately equimolar concentrations | MC congener transport by OATPs (OATPs): comparably minor extent | MC congener transport (screen) (zfOatp1f2-2 [6]): did not transport any of the four MC-congeners tested | MC-LR in brain and muscle tissue (carp): detectable | pathological changes in hepatopancreas and kidney (carp): time-dependent pathological changes

Microcystin-LF [MC-LF]
MC congener transport (screen) (zfOatp1f3 [1]): did not transport any of the four MC-congeners tested | MC congener transport (screen) (zfOatp1f1 [2]): absence of MC transport | MC congener transport (screen) (zfOatp1d1 [3]): transported all tested MC-congeners | affinity of zfOatp1d1 (Km), MC-LF compared to MC-LR (zfOatp1d1 [3]): 2 fold | concentration dependent uptake (saturability) (zfOatp1d1 [3]): saturable | relative Vmax (uptake velocity), MC-LF versus MC-LR (zfOatp1d1 [3]): 6 fold | time within which transport occurred (zfOatp1d1 [3]): ≤ 1 h | MC congener transport (screen) (zfOatp1f4-2 [7]): transported | time dependent MC uptake, relative speed (zfOatp1f4-2 [7]): Comparable transport | MC congener transport (screen) (zfOatp1f2-1 [4]): did take up | time dependent MC uptake, relative speed (zfOatp1f2-1 [4]): slower than that observed for zfOatp1d1 | MC congener transport (screen) (zfOatp1f4-1 [8]): transported | time dependent MC uptake, relative speed (zfOatp1f4-1 [8]): Comparable transport | inhibition of ser/thrPP activities [5]: approximately equimolar concentrations | MC congener transport by OATPs (OATPs): transport was demonstrated | MC congener transport (screen) (zfOatp1f2-2 [6]): did not transport any of the four MC-congeners tested

C[C@]12CC[C@@H]3c4ccc(OS(=O)(=O)O)cc4CC[C@H]3[C@@H]1CCC2=O [E3S, estrone sulfate ammonium salt]
[3H] E3S transport, prolonged uptake (zfOatp1f1 [9]; [16]): no [^3H] E3S transport was observed | [3H] E3S transport, prolonged uptake (zfOatp1f2-1 [10]; [16]): no [^3H] E3S transport was observed

Microcystin-LW [MC-LW]
MC congener transport (screen) (zfOatp1f3 [1]): did not transport any of the four MC-congeners tested | MC congener transport (screen) (zfOatp1f1 [2]): absence of MC transport | MC congener transport (screen) (zfOatp1d1 [3]): transported all tested MC-congeners | time within which transport occurred (zfOatp1d1 [3]): ≤ 1 h | MC congener transport (screen) (zfOatp1f2-1 [4]): did take up | time dependent MC uptake, relative speed (zfOatp1f2-1 [4]): slower than that observed for zfOatp1d1 | inhibition of ser/thrPP activities [5]: approximately equimolar concentrations | MC congener transport by OATPs (OATPs): transport was demonstrated | MC congener transport (screen) (zfOatp1f2-2 [6]): did not transport any of the four MC-congeners tested

C[C@H](CCC(=O)NCCS(=O)(=O)O)[C@H]1CC[C@H]2[C@@H]3[C@H](O)C[C@@H]4C[C@H](O)CC[C@]4(C)[C@H]3C[C@H](O)[C@]12C [TCA, taurocholic acid]
transport of Oatp substrate (uptake vs empty vector cells) (zfOatp1d1 [11]): transported | transport of Oatp substrate (uptake vs empty vector cells) (zfOatp1f1 [9]): did not transport any of the three substrates | transport of Oatp substrate (uptake vs empty vector cells) (zfOatp1f4-2 [12]): none of the other zfOatps transported | transport of Oatp substrate (uptake vs empty vector cells) (zfOatp1f2-1 [10]): did not transport any of the three substrates | transport of Oatp substrate (uptake vs empty vector cells) (zfOatp2b1): did not transport any of the three substrates | transport of Oatp substrate (uptake vs empty vector cells) (zfOatp1f4-1 [13]): none of the other zfOatps transported

Microcystin-RR [MC-RR]
MC congener transport (screen) (zfOatp1f3 [1]): did not transport any of the four MC-congeners tested | MC congener transport (screen) (zfOatp1f1 [2]): absence of MC transport | MC congener transport (screen) (zfOatp1d1 [3]): transported all tested MC-congeners | time after which nearly linear uptake plateaus (zfOatp1d1 [3]): 12 h | inhibition of ser/thrPP activities [5]: approximately equimolar concentrations | MC congener transport by OATPs (OATPs): lacked transport | MC congener transport (screen) (zfOatp1f2-2 [6]): did not transport any of the four MC-congeners tested

CN(Cc1cnc2nc(N)nc(N)c2n1)c1ccc(C(=O)N[C@@H](CCC(=O)O)C(=O)O)cc1 [MTX, methotrexate disodium salt]
transport of Oatp substrate (uptake vs empty vector cells) (zfOatp1f3 [14]): none of the other zfOatps transported | transport of Oatp substrate (uptake vs empty vector cells) (zfOatp1d1 [11]): transported | transport of Oatp substrate (uptake vs empty vector cells) (zfOatp1f1 [9]): did not transport any of the three substrates | transport of Oatp substrate (uptake vs empty vector cells) (zfOatp1f4-2 [12]): none of the other zfOatps transported | transport of Oatp substrate (uptake vs empty vector cells) (zfOatp1f2-2 [15]): none of the other zfOatps transported | transport of Oatp substrate (uptake vs empty vector cells) (zfOatp1f2-1 [10]): did not transport any of the three substrates | transport of Oatp substrate (uptake vs empty vector cells) (zfOatp4a1): did not transport any of the three substrates | transport of Oatp substrate (uptake vs empty vector cells) (zfOatp2b1): did not transport any of the three substrates | transport of Oatp substrate (uptake vs empty vector cells) (zfOatp1f4-1 [13]): none of the other zfOatps transported
